Reference: patent publication US20210052701A1, “Methods of Treating Vascular Leakage Using CXCL12 Peptides” (The Medical College of Wisconsin, Inc., priority 2018, published 2021)
Where no end group is shown, it is not given here. [ ]: non-standard residue; d: D form. sY = N[C@@H](Cc1ccc(OS(=O)(=O)O)cc1)C(=O)O

Legend:
CXCL12 = CXCL12 (Homo sapiens, UniProt P48061); test: CXCL12 dimerization (biophysical measurements); format: binding; settings: sulfopeptide bound to the sTyr21 recognition site
Description: The present invention provides a constitutively monomeric CXCL12 variant (CXCL121) engineered to resist peptide-induced dimerization by maintaining steric repulsion of the chemokine helix. Six short CXCR4 peptides, centered on Tyr7, Tyr12, or Tyr21, were synthesized to study the contributions of individual sulfotyrosines in peptide binding and specificity. Peptides were titrated into CXCL12WT, CXCL122 (a constitutively dimeric variant of CXCL12 containing L36C/A65C mutations), or CXCL121 and the interaction was monitored by 2D NMR. While sulfopeptides encompassing sTyr7 and sTyr12 interacted nonspecifically, an […] Tyr7 peptide induced a new set of chemical shift perturbations in the CXCL12 monomer that were also observed upon binding of the intact CXCR41-38 N-terminal domain.

hPPAEC [1] = test: In vitro vascular permeability assay (FITC-dextran), hPPAEC monolayer, CXCR4/ACKR3 ligands without thrombin; format: cell-based, human; settings: 50 nM ligand for 10 min, then FITC-dextran; no thrombin
Description: FIGS. 1A-1B show expression of CXCR4, ACKR3 and CXCR4:ACKR3 heteromers on hPPAEC and effects of CXCR4/ACKR3 ligands on hPPAEC monolayer permeability. (A) Detection of CXCR4, ACKR3 and CXCR4:ACKR3 heteromers on hPPAEC by PLA. Typical PLA images for the detection of individual receptors and CXCR4:ACKR3 heteromers. Images show merged PLA/40,6-diamidino-2-phenylindole dihydrochloride (DAPI) signals. Ctrl: Omission of one secondary antibody. (B) hPPAEC were grown to a confluent monolayer on collagen-coated permeable membranes. Cells were then exposed to vehicle or 50 nM of CXCR4/ACKR3 ligands for 10 minutes, as indicated, followed by the addition of FITC-dextran. Endothelial permeability was assessed by measuring the amount of FITC-dextran that permeated through the cell monolayer. N=3 in quadruplicate. No cells: 100% permeability, open squares. RFU: Relative fluorescence units. *: p<0.05 vs. vehicle (2-way ANOVA/Bonferroni's multiple comparison post hoc test).
Cells and cell lines—Human primary pulmonary artery endothelial cells (hPPAEC) (ATCC, PCS-100-022) and the human lung microvascular endothelial cell line HULEC-5a (ATCC, CRL-3244) were cultured in vascular cell basal medium (ATCC, PCS-100-030) with endothelial cell growth kit-VEGF (ATCC, PCS-100-041). The HTLA cell line, a HEK293 cell line stably expressing a tTA-dependent luciferase reporter and a β-arrestin2-TEV fusion gene, was generously provided by the laboratory of Dr. Bryan Roth and maintained in high glucose Dulbecco's Modified Eagle's Medium supplemented with 10% (vol/vol) FBS, 1× non-essential amino acids, 100 U/mL penicillin, 100 μg/mL streptomycin, 50 μg/mL hygromycin B, and 2 μg/mL puromycin. All cells were cultured at 37° C., 5% CO2 in a humidified atmosphere.
(§1) In vitro vascular permeability assays—Permeability assays were obtained from Millipore (ECM642) and performed as per manufacturer's instructions. In brief, 96-well collagen-coated permeability assay plates were pre-hydrated for 15 min, 5×10^5 cells were seeded on each well and grown to a confluent monolayer for 48 hours. Fluorescein isothiocyanate (FITC)-dextran (20 μg/mL) was then added on top of the monolayer and the amount of FITC-dextran that permeated through the monolayer was quantified by measuring fluorescence in a Synergy 2 Multi-mode Microplate Reader (BioTek, Winooski, Vt.) at various time points over a 255 min time period.

hPPAEC [2] = test: Effects of CXCR4 agonists / CXCL12 variants on thrombin-induced impairment of hPPAEC monolayer permeability; format: cell-based, human
Description: FIGS. 3A-3D show effects of CXCL12 and ubiquitin on thrombin-induced impairment of hPPAEC monolayer permeability. hPPAEC were grown to a confluent monolayer on collagen-coated permeable membranes. (A) hPPAEC were pre-treated with vehicle, 100 nM of CXCL12 or ubiquitin for 10 minutes, as indicated, and then exposed to thrombin (50 nM), followed by the addition of FITC-dextran. Vehicle: no thrombin. Endothelial permeability was assessed by measuring the amount of FITC-dextran that permeated through the cell monolayer. No cells: 100% permeability (open circles). RFU: Relative fluorescence units. N=3 in quadruplicate. *: p<0.05 vs. vehicle/thrombin. (B-D) hPPAEC were exposed to 35 nM of thrombin or vehicle. After 10 min, thrombin-exposed cells were treated with vehicle, CXCL12 (50 nM) and/or AMD3100 (10 μM) (B), with vehicle, ubiquitin (50 nM) and/or AMD3100 (10 μM) (C) or with various concentrations of ubiquitin (D) followed by the addition of FITC-dextran. The experimental conditions are indicated. Endothelial permeability was assessed by measuring the amount of FITC-dextran that permeated through the cell monolayer. RFU: Relative fluorescence units. N=3 in quadruplicate. *: p<0.05 vs. thrombin/vehicle (2-way ANOVA/Bonferroni's multiple comparison post hoc test).
(§2) FIGS. 7A-7D show dose-dependent effects of CXCL12α/β, CXCL12 (3-68) and CXCL12 mutants K27A/R41A/R47A, R47E and S-S4V on thrombin-induced impairment of hPPAEC monolayer permeability. hPPAEC cells were grown to a confluent monolayer on collagen-coated permeable membranes. hPPAEC were then exposed to 35 nM of thrombin. After 10 min, thrombin-exposed cells were treated with vehicle or 50 nM (A), 5 nM (B), 0.5 nM (C) or 0.05 nM (D) of the various proteins, as indicated. In (D) 5 nM CXCL12a was used as a positive control. N=3 in quadruplicate.
as §2, with “8A-8D” for “7A-7D”, “CXCL12α, CXCL121” for “CXCL12α/β, CXCL12 (3-68)”, “CXCL122” for “CXCL12 mutants K27A/R41A/R47A, R47E and S-S4V”, “CXCL12α” for “CXCL12a”
FIGS. 9A-9B show inhibition of thrombin-induced hyper-permeability of hPPAEC by CXCL12/CXCL12 variants. % inhibition: % inhibition of thrombin-induced hyperpermeability. Data from FIGS. 7 and 8 at t=255 min. N=3 in quadruplicate. *: p<0.05 vs. CXCL12a (2-way ANOVA/Bonferroni's multiple comparison post hoc test).
as §1

HULEC-5a = test: Effects of CXCL12 and ubiquitin on thrombin-induced impairment of HULEC-5a monolayer permeability; format: cell-based, human; settings: thrombin 50 nM, after 10 min 50 nM ligand
Description: FIGS. 4A-4D show effects of CXCL12 and ubiquitin on thrombin-induced impairment of HULEC-5a monolayer permeability. (A) HULEC-5a were grown to a confluent monolayer on collagen-coated permeable membranes and then exposed to different concentration of thrombin for 10 min, followed by the addition of FITC-dextran. Endothelial permeability was assessed by measuring the amount of FITC-dextran that permeated through the cell monolayer. No cells: 100% permeability. RFU: Relative fluorescence units. N=3 in quadruplicate. (B) Dose-response curves for thrombin-induced permeability, data from A. 100% permeability=permeability in the absence of HULEC-5a. Open squares: Permeability at t=55 min. Light grey squares: Permeability at t=135 min. Dark grey squares: Permeability at t=255 min. […] Endothelial permeability was assessed by measuring the amount of FITC-dextran that permeated through the cell monolayer. RFU: Relative fluorescence units. […]
as §1, with “In brief, 96-well collagen-coated permeability assay plates were pre-hydrated for 15 min, 5×10^5 cells were seeded on each well and grown to a confluent monolayer for 48 hours.” left out

Sequence of CXCL12 (P48061 22-89 limits assumed): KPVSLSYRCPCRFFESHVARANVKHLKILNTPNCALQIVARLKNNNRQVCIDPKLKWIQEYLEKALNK

Substance: sTyr21 sulfopeptide: short CXCR4 peptide centered on sulfated Tyr21 (SGD[sY]DSM)
- increase of the CXCL12 dimerization affinity (CXCL12): eight-fold

Substance: ubiquitin
- effect on hPPAEC monolayer permeability (hPPAEC [1]): did not affect hPPAEC permeability
- effect of pre-treatment on thrombin-induced hyper-permeability of hPPAEC (hPPAEC [2]; 100 nM for 10 min, then thrombin (50 nM)): significantly attenuated thrombin-induced hyper-permeability of hPPAEC
- effect on thrombin-induced permeability of hPPAEC when added after thrombin (hPPAEC [2]; thrombin 35 nM, after 10 min CXCL12 or ubiquitin 50 nM, AMD3100 10 μM): did not modulate thrombin-induced hyper-permeability
- effect on thrombin-induced hyper-permeability at various concentrations (hPPAEC [2]; thrombin 35 nM, ubiquitin 30 nM-3 μM after thrombin): did not attenuate thrombin-induced hyper-permeability
- effect on thrombin-induced hyper-permeability, ubiquitin plus AMD3100 (hPPAEC [2]; thrombin 35 nM, ubiquitin 50 nM plus AMD3100 10 μM): did not modulate thrombin-induced hyper-permeability
- effect on thrombin-mediated impairment of HULEC-5a barrier function when added after thrombin (HULEC-5a): significantly reduced thrombin-mediated impairment of endothelial cell barrier function
